# Measurements taken from US11047847B2, “Methods and apparatus for modeling cancer metastasis in vitro” (Wake Forest University Health Sciences, priority 2015, dated 2021).
# Entries after “also recorded” stand apart in the source; their conditions may differ.
# Tests used:
# [1] = tested on: HCT116 organoids (KRASMT); test: MTS assay of mitochondrial metabolism in CRC organoids in microfluidic devices; type: cell-based, human; details: 48-hour treatment
# Text: (§1) Precision medicine—identifying treatments for patients based on their tumor genetic profiles—has gained significant traction. […] In a non-limiting example, colorectal cancer (CRC) organoids were created by encapsulating CRC cells (Caco2 and SW480—WT; HCT116—KRASMT; and HT29—BRAFMT) in hyaluronic acid and gelatin hydrogels in microfluidic devices. Each type of CRC organoid was then subjected to a panel of clinical CRC drugs: 5-FU or oxaliplatin (1st line drugs effective in WT tumors), Tramatinib (an EGFR pathway drug effective in KRASMT tumors), and sorafenib or regorafenib (EGFR pathway drugs effective in BRAFMT tumors). Following 48-hour treatments, organoids were assessed for mitochondrial metabolism by MTS assays. There appeared to be clear differences in drug responsiveness that correlated with EGFR genetic states.
# Caco2 organoids (WT) = test: as above; type: cell-based; details: 48-hour treatment
# Text: as §1
# SW480 organoids (WT) = test: as above; type: cell-based; details: 48-hour treatment
# Text: as §1
# HCT-116 cells = test: Drug treatment and assessment of migration, multi-zone tumor organoid migration model (soft tumor, stiff tissue); type: cell-based, human; details: 50 μM Marimastat in DMEM vs no drug control
# Experimental: To assess the influence of the physical tumor microenvironment parameters on tumor cell migration, a variation of the organoids described above were […]. Instead of encapsulating homogenously mixed cells throughout the hydrogel, 3-D organoid volumes were formed first, after which a volume of 5 μL HCT-116 cells in hydrogel precursor solution was pipetted into the center of the organoid space and polymerized in place by a 1 second exposure to UV light. […] Organoid and tumor zone elastic moduli were modulated by swapping of the linear PEGDA crosslinker molecule (3.4 kDa MW) with a 4-arm PEG-acrylate molecule (10 kDa MW, Creative PEGWorks, Winston-Salem, N.C.) or 8-arm PEG-acrylate crosslinker molecule (10 kDa MW, Creative PEGWorks) to generate stiffer hydrogels. […] Fluorescent and brightfield overlay images were captured on day 3, day 7, and day 10, from which distances of migration of cells out of the tumor were determined over time using ImageJ software. […]
# HT29 organoids (BRAFMT) = test: MTS assay of mitochondrial metabolism in CRC organoids in microfluidic devices; type: cell-based; details: 48-hour treatment
# Text: as §1
smiles,measurement,setting,value
O=c1[nH]cc(F)c(=O)[nH]1 [5-FU],drug sensitivity (mitochondrial metabolism by MTS),[1],particularly sensitive
same,drug sensitivity (mitochondrial metabolism by MTS),Caco2 organoids (WT),particularly sensitive
same,drug sensitivity (mitochondrial metabolism by MTS),SW480 organoids (WT),particularly sensitive
"CNC(=O)C(NC(=O)C(CC(C)C)C(O)C(=O)NO)C(C)(C)C (stereo not shown) [Marimastat, N-[2,2-dimethyl-1-(methylcarbamoyl)propyl]-2-[hydroxy-(hydroxycarbamoyl)methyl]-4-methyl-pentanamide]",migration distance of HCT-116 cells out of the tumor,"HCT-116 cells; day 3, day 7 and day 10, length in pixel counts, p<0.05",significantly prevented migration
same,tumor cell invasion / outward growth of HCT-116 aggregates into the surrounding 3-D environment,"HCT-116 cells; overlay images, day 10",reduce tumor cell invasion; also recorded: prevents outward growth of aggregates
CNC(=O)c1cc(Oc2ccc(NC(=O)Nc3ccc(Cl)c(C(F)(F)F)c3)c(F)c2)ccn1 [regorafenib],drug sensitivity (mitochondrial metabolism by MTS),HT29 organoids (BRAFMT),slight sensitivity
CNC(=O)c1cc(Oc2ccc(NC(=O)Nc3ccc(Cl)c(C(F)(F)F)c3)cc2)ccn1 [sorafenib],drug sensitivity (mitochondrial metabolism by MTS),[1],particularly sensitive
